Data as given in PubChem BioAssay AID330 (DTP/NCI, 2004).
“And” between values parts separate entries of the source, which are not always exact repeats. Equal values may be shown once. Inconclusive results and toxic doses are left out.

System: P388 leukemia ip, CD2F1 mice, survival T/C
Test: NCI In Vivo Anticancer Drug Screen. Data for tumor model P388 Leukemia (intraperitoneal) in CD2F1 (CDF1) mice
Conditions: endpoint: median survival time, higher = longer survival
Procedure, shortened: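 Mice carrying the transplanted tumor received test compound or vehicle. Survival was recorded in each group, and the value is the treated-group measurement divided by that of the vehicle-treated control group.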

[1] = dose: 60.0 mg/kg/injection, schedule: Q01DX005 (ip), vehicle: Klucel (hydroxypropylcellulose) (HPC)
[2] = dose: 120.0 mg/kg/injection, schedule: Q01DX005 (ip), vehicle: Klucel (hydroxypropylcellulose) (HPC)
[3] = dose: 240.0 mg/kg/injection, schedule: Q01DX005 (ip), vehicle: Klucel (hydroxypropylcellulose) (HPC)
[4] = dose: 60.0 mg/kg/injection, schedule: Q01DX005 (ip), vehicle: saline with Tween-80
[5] = dose: 120.0 mg/kg/injection, schedule: Q01DX005 (ip), vehicle: saline with Tween-80
[6] = dose: 240.0 mg/kg/injection, schedule: Q01DX005 (ip), vehicle: saline with Tween-80
[7] = dose: 6.25 mg/kg/injection, schedule: Q01DX009 (ip), vehicle: Klucel (hydroxypropylcellulose) (HPC)
[8] = dose: 12.5 mg/kg/injection, schedule: Q01DX009 (ip), vehicle: Klucel (hydroxypropylcellulose) (HPC)
[9] = dose: 50.0 mg/kg/injection, schedule: Q01DX005 (ip), vehicle: Klucel (hydroxypropylcellulose) (HPC)
[10] = dose: 100.0 mg/kg/injection, schedule: Q01DX005 (ip), vehicle: Klucel (hydroxypropylcellulose) (HPC)
[11] = dose: 200.0 mg/kg/injection, schedule: Q01DX005 (ip), vehicle: Klucel (hydroxypropylcellulose) (HPC)

CS(=O)(=O)OCC(O)C(O)COS(C)(=O)=O (stereo unspecified) was tested, and the T/C (dose: 50.0 mg/kg/injection, schedule: Q01DX001 (ip), vehicle: Klucel (hydroxypropylcellulose) (HPC)) was 106 % of control, the T/C (dose: 100.0 mg/kg/injection, schedule: Q01DX001 (ip), vehicle: Klucel (hydroxypropylcellulose) (HPC)) was 110 % of control and the T/C (dose: 100.0 mg/kg/injection, schedule: Q01DX001 (ip), vehicle: saline) was 100 % of control. For the same molecule, the T/C (dose: 100.0 mg/kg/injection, schedule: Q01DX001 (oral), vehicle: saline) was 100 % of control, the T/C (dose: 100.0 mg/kg/injection, schedule: Q01DX009 (oral), vehicle: saline) was 104 % of control and the T/C (dose: 100.0 mg/kg/injection, schedule: Q03HX008 (ip), vehicle: saline) was 100 % of control. The T/C (dose: 100.0 mg/kg/injection, schedule: Q03HX016 (ip), vehicle: saline) was 100 % of control, the T/C (dose: 100.0 mg/kg/injection, schedule: Q03HX024 (ip), vehicle: saline) was 100 % of control and the T/C (dose: 100.0 mg/kg/injection, schedule: Q04DX003 (ip), vehicle: saline with Tween-80) was 109 % of control. The T/C (dose: 100.0 mg/kg/injection, schedule: Q04DX003 (ip), vehicle: saline) was 104 % of control, the T/C (dose: 100.0 mg/kg/injection, schedule: Q08DX002 (ip), vehicle: saline) was 104 % of control and the T/C (dose: 200.0 mg/kg/injection, schedule: Q01DX001 (ip), vehicle: Klucel (hydroxypropylcellulose) (HPC)) was 110 % of control. The T/C (dose: 200.0 mg/kg/injection, schedule: Q01DX001 (ip), vehicle: saline) was 100 % of control, the T/C (dose: 200.0 mg/kg/injection, schedule: Q01DX001 (oral), vehicle: saline) was 100 % of control and the T/C (dose: 200.0 mg/kg/injection, schedule: Q01DX009 (oral), vehicle: saline) was 104 % of control. For the same molecule, the T/C (dose: 200.0 mg/kg/injection, schedule: Q03HX008 (ip), vehicle: saline) was 100 % of control, the T/C (dose: 200.0 mg/kg/injection, schedule: Q03HX016 (ip), vehicle: saline) was 100 % of control and the T/C (dose: 200.0 mg/kg/injection, schedule: Q03HX024 (ip), vehicle: saline) was 100 % of control. For the same molecule, the T/C (dose: 200.0 mg/kg/injection, schedule: Q04DX003 (ip), vehicle: saline with Tween-80) was 104 % of control, the T/C (dose: 200.0 mg/kg/injection, schedule: Q04DX003 (ip), vehicle: saline) was 100 % of control and the T/C (dose: 200.0 mg/kg/injection, schedule: Q08DX002 (ip), vehicle: saline) was 104 % of control. The T/C (dose: 400.0 mg/kg/injection, schedule: Q01DX001 (ip), vehicle: saline) was 100 % of control, the T/C (dose: 400.0 mg/kg/injection, schedule: Q01DX001 (oral), vehicle: saline) was 109 % of control and the T/C (dose: 400.0 mg/kg/injection, schedule: Q01DX009 (ip), vehicle: saline) was 90 % of control. For the same molecule, the T/C (dose: 400.0 mg/kg/injection, schedule: Q01DX009 (oral), vehicle: saline) was 100 % of control, the T/C (dose: 400.0 mg/kg/injection, schedule: Q03HX008 (ip), vehicle: saline) was 109 % of control and the T/C (dose: 400.0 mg/kg/injection, schedule: Q03HX016 (ip), vehicle: saline) was 100 % of control. For the same molecule, the T/C (dose: 400.0 mg/kg/injection, schedule: Q03HX024 (ip), vehicle: saline) was 100 % of control, the T/C (dose: 400.0 mg/kg/injection, schedule: Q04DX003 (ip), vehicle: saline with Tween-80) was 118 % of control and the T/C (dose: 400.0 mg/kg/injection, schedule: Q04DX003 (ip), vehicle: saline) was 104 % of control. For the same molecule, the T/C (dose: 400.0 mg/kg/injection, schedule: Q08DX002 (ip), vehicle: saline) was 104 % of control, the T/C (dose: 800.0 mg/kg/injection, schedule: Q01DX001 (ip), vehicle: saline) was 109 % of control and the T/C (dose: 800.0 mg/kg/injection, schedule: Q01DX001 (oral), vehicle: saline) was 100 % of control. The T/C (dose: 800.0 mg/kg/injection, schedule: Q01DX009 (oral), vehicle: saline) was 113 % of control, the T/C (dose: 800.0 mg/kg/injection, schedule: Q03HX008 (ip), vehicle: saline) was 109 % of control and the T/C (dose: 800.0 mg/kg/injection, schedule: Q03HX016 (ip), vehicle: saline) was 100 % of control. The T/C (dose: 800.0 mg/kg/injection, schedule: Q03HX024 (ip), vehicle: saline) was 100 % of control, the T/C (dose: 800.0 mg/kg/injection, schedule: Q04DX003 (ip), vehicle: saline) was 114 % of control and the T/C (dose: 800.0 mg/kg/injection, schedule: Q08DX002 (ip), vehicle: saline) was 104 % of control.

For Cc1ccc(Nc2nnc(Nc3ccc(C)cn3)c3ccccc23)nc1, the T/C (dose: 50.0 mg/kg/injection, schedule: Q01DX005 (ip), vehicle: saline with Tween-80) was 90 % of control and the T/C (dose: 100.0 mg/kg/injection, schedule: Q01DX005 (ip), vehicle: saline with Tween-80) was 89 % of control.

With Cc1nnc2n(N)c(=O)c(CC(=O)c3ccc(F)cc3)nn12 the T/C [1] was 96 % of control, the T/C [2] was 88 % of control and the T/C [3] was 90 % of control.

COc1cccc(C2NC(=S)NC(=O)C2C#N)c1 (stereo unspecified) was tested, and the T/C (dose: 50.0 mg/kg/injection, schedule: Q01DX009 (ip), vehicle: Klucel (hydroxypropylcellulose) (HPC)) was 98 % of control, the T/C (dose: 100.0 mg/kg/injection, schedule: Q01DX009 (ip), vehicle: Klucel (hydroxypropylcellulose) (HPC)) was 98 % of control and the T/C (dose: 200.0 mg/kg/injection, schedule: Q01DX009 (ip), vehicle: Klucel (hydroxypropylcellulose) (HPC)) was 94 % of control.

In the case of O=C1NC(c2ccccc2)(c2ccccc2)C(=O)N1CN1CC=CCC1, the T/C [1] is reported as 103 % of control, the T/C [2] is reported as 108 % of control and the T/C [3] is reported as 97 % of control.

In the case of COC(=O)C(=CNC(N)=O)C(=O)OC, the T/C [4] is reported as 96 % of control, the T/C [5] is reported as 100 % of control and the T/C [6] is reported as 94 % of control.

In the case of C=CCSc1nc2ccc(NC(C)=O)cc2s1, the T/C [7] is reported as 104 % of control, the T/C [8] is reported as 108 % of control and the T/C (dose: 25.0 mg/kg/injection, schedule: Q01DX009 (ip), vehicle: Klucel (hydroxypropylcellulose) (HPC)) is reported as 94 % of control.

CN(CCO)c1ccc([N+](=O)[O-])c2nonc12 was tested, and the T/C (dose: 25.0 mg/kg/injection, schedule: Q04DX002 (ip), vehicle: saline) was 99 % of control and 103 % of control, the T/C (dose: 50.0 mg/kg/injection, schedule: Q04DX002 (ip), vehicle: saline) was 99 % of control (2×) and 115 % of control and the T/C (dose: 100.0 mg/kg/injection, schedule: Q04DX002 (ip), vehicle: saline) was 100 % of control and 101 % of control.

In the case of c1ccc(-c2n[nH]c(-c3[nH]nc(-c4ccccc4)c3-c3ccccc3)c2-c2ccccc2)cc1, the T/C [4] is reported as 100 % of control, the T/C [5] is reported as 103 % of control and the T/C [6] is reported as 101 % of control.

With CC(=O)OC1CSc2ccccc2N(C(C)=O)C1 (stereo unspecified) the T/C [1] was 104 % of control, the T/C [2] was 99 % of control and the T/C [3] was 107 % of control.

COC(=O)C1C(NCc2ccccc2)=CC(C)(C)C(C(=O)OC)C1c1ccccc1 (stereo unspecified) was tested, and the T/C [9] was 103 % of control, the T/C [10] was 100 % of control and the T/C [11] was 97 % of control.

COC(OC)C(Sc1ccccc1-n1cccc1)c1ccccc1 (stereo unspecified) was tested, and the T/C (dose: 60.0 mg/kg/injection, schedule: Q01DX005 (ip), vehicle: saline) was 105 % of control, the T/C (dose: 120.0 mg/kg/injection, schedule: Q01DX005 (ip), vehicle: saline) was 103 % of control and the T/C (dose: 240.0 mg/kg/injection, schedule: Q01DX005 (ip), vehicle: saline) was 108 % of control.

With O=NNc1nc2ccccc2[nH]1 the T/C (dose: 3.12 mg/kg/injection, schedule: Q01DX009 (ip), vehicle: water) was 99 % of control, the T/C (dose: 6.25 mg/kg/injection, schedule: Q01DX009 (ip), vehicle: water) was 103 % of control and the T/C (dose: 12.5 mg/kg/injection, schedule: Q01DX009 (ip), vehicle: water) was 109 % of control. For the same molecule, the T/C (dose: 25.0 mg/kg/injection, schedule: Q01DX009 (ip), vehicle: water) was 103 % of control and 98 % of control, the T/C (dose: 50.0 mg/kg/injection, schedule: Q01DX009 (ip), vehicle: water) was 100 % of control and 97 % of control and the T/C (dose: 100.0 mg/kg/injection, schedule: Q01DX009 (ip), vehicle: water) was 97 % of control. The T/C (dose: 200.0 mg/kg/injection, schedule: Q01DX009 (ip), vehicle: water) was 91 % of control.

For CC1(c2ccccn2)C(=O)c2ccccc2C1=O, the T/C [9] was 98 % of control, the T/C [10] was 100 % of control and the T/C [11] was 99 % of control.

In the case of Cc1cc(N(CCOS(C)(=O)=O)CCOS(C)(=O)=O)ccc1C=O, the T/C (dose: 3.12 mg/kg/injection, schedule: Q01DX009 (ip), vehicle: Klucel (hydroxypropylcellulose) (HPC)) is reported as 150 % of control and 176 % of control, the T/C [7] is reported as 174 % of control and 196 % of control and the T/C [8] is reported as 110 % of control and 213 % of control and 217 % of control.

For C=C1C(=O)OC2/C=C(\CO)C3OC3C3OC3(C)CC(OC(=O)/C(=C/C)COC(C)=O)C12 (stereo unspecified), the T/C (dose: 25.0 mg/kg/injection, schedule: Q01DX005 (ip), vehicle: Klucel (hydroxypropylcellulose) (HPC)) was 98 % of control and the T/C [9] was 114 % of control.
